Results from patent US12102607B2, “C5aR inhibitors for use in the treatment of chemotherapy-induced iatrogenic pain” (Dompe' Farmaceutici S.P.A., priority 2017, dated 2024).

Tests used:
DRG neurons [1] = experiment: Synapse number on DRG neurons (synaptotagmin staining, image analysis); type: cell-based, Sprague Dawley rat; details: for % of synapse number: relative to UT
Method: (§1) Dorsal Root Ganglion neurons were obtained by dissociation of post natal (P2) Sprague Dawley rat ganglia (Envigo, Bresso Italy), following well-defined protocols (O'Meara et al, 2011; Owen et al, 2012). To minimize introduction of contaminating cells into the culture, any excessively long roots were trimmed from DRGs. After the isolation, DRGs were enzymatically dissociated as follows: • 20 minutes of 1.5 mg/ml papain exposure at 37° C., • 30 minutes of 4 mg/ml collagenase exposure at 37° C.
(§2) Subsequently, cells were mechanically dissociated with a fire polished glass Pasteur pipette, in order to obtain a single cell suspension.
(§3) Once dissociation was achieved, cells were seeded onto 96 black multiwell plates coated with Laminin (10 ug/mL, overnight at Room Temperature, RT) at selected densities. Following 1 week of incubation in DMEM high glucose medium supplemented with 10% FBS, 1× N2, 1× B27, 100 IU/mI penicillin, […] streptomycin, cells were treated according to experimental needs.
(§4) Alpha Tubulin Acetylation DRG-derived neurons were cultured for 7 days and then treated with:
(§5) • paclitaxel (200 nM, 500 nM, 1 μM and 5 μM, 20 μM) in presence or absence of DF3966Y (0.1, 1 and 10 μM) or DF2593A (0.1, 1 and 10 μM) • or C5a (500 ng/ml and 1 μg/ml) in presence or absence of DF3966Y (1 μM)
(§6) After 24 hr of treatment, cells were stained by immunofluorescence.
(§7) Cells were fixed with saccharose-paraformaldehyde then staining was performed overnight. Primary antibodies (anti—Ill Tubulin and anti-synaptotagmin 1) were diluted 1:500 in 1×PBS-4% BSA-2% Normal goat serum and 0.3% Triton x-100. The next day, cells were washed with 1×PBS-4% BSA and secondary antibodies were used diluted 1:500 in 1×PBS-4% BSA-2% Normal goat serum and 0.3% Triton x-100. After 1 hr of incubation, cells were washed with 1×PBS. Hoechst was used as a counterstain.
(§8) Sixteen images per well were taken with ArrayScan XTI HCA Reader (Thermo Fisher Scientific) with and 40× objective. All the analysis were done with HCS Studio software
For synapse count a threshold has been set, in particular all the objects, positive to synaptotagmin staining, in the range 0.365-2.457 μm^2 have been considered as synapses.
(§9) Cells number, synapse number and dentritic arborization were evaluated in untreated cells and in cells stimulated with paclitaxel and C5a alone or in presence of the drug. As marker of chemotherapy-induced toxicity, the total number of synapses on DRG neurons was quantitative evaluated as percentage of the number of synapse with respect to untreated (UT) control.
(§10) Data are obtained as the sum of the values obtained by the analysis of sixteen fields per well for each experiment. Percentage of the values in respect to the relative mean untreated group was calculated. Mean of the percentages from 4 separate experiments was plotted in the following Tables 2-7.

DRG neurons [2] = experiment: Electrophysiological recordings (whole-cell patch-clamp, current-clamp) of DRG-derived neurons; type: cell-based, Sprague Dawley rat
Method: as §1
Dorsal Root Gangliar (DRG)-derived neurons were cultured for 7 days and then treated in blind with the following combinations: 10 nM Paclitaxel, 10 nM Paclitaxel+1 μM DF3966Y, 1 μg/ml C5a, 1 μg/ml C5a+1 μM DF3966Y.
The compounds were administered for 1 min 30 sec (short acute stimulation) or 5 minutes (long chronic stimulation). The application of the compounds was followed by a wash-out in the physiological control solution for an equivalent time (about 10 min).
Electrophysiological recordings were performed by the patch-clamp technique in the whole-cell configuration. The standard extracellr solution was bath applied and contained the following (mM): NaCl 135, KCl 2, CaCl2 2, MgCl2 2, hepes 10, glucose 5, pH 7.4. The standard pipet solution contained the following (mM): potassium aspartate 130, NaCl 10, MgCl2 2, CaCl2 1.3, EGTA 10, Hepes 10, pH 7.3. Recordings were acquired by the pClamp8.2 software and the MultiClamp 700A amplifier (Axon Instruments), in current-clamp mode.

DRG neurons [3] = experiment: Dendritic tree area of DRG neurons (image analysis); type: cell-based, Sprague Dawley rat; details: for % dendritic tree area: relative to UT
Method: as §1, §2, §3, §4, §5, §6, §7, §8
Dendritic arborization directly influences synaptic genesis and input. A well-developed arborization indicates a functional synaptic network. For this reason, the area occupied by dendritic arborization has been quantified.
as §10

DRG neurons [4] = experiment: Cells number of DRG neurons (immunofluorescence, image analysis); type: cell-based; details: for % of cell number: relative to UT
Method: as §1, §2, §3, §4, §5, §6, §7, §8, §9, §10

acetylated α-Tubulin = experiment: In-cell western analysis of acetylated α-Tubulin in DRG neurons; type: cell-based, Sprague Dawley rat; details: for Acetylated α-Tubulin (% of UT): DRG neurons
Method: as §1, §2, §3
Dorsal Root Ganglion neurons isolated as previously reported were subjected to the following experimental challenge scheme as depicted in FIG. 10.
Paclitaxel, C5a and drugs were administered 24 hr prior the in-cell western experiment. Following 24 hr of treatment with appropriate stimuli as previously indicated, cells were washed with 1×PBS and fixed with 3,7% formaldehyde for 15 min. After the removal of fixing solution, cells were washed with 1×PBS and permeabilized with 1×PBS-0,1% Triton X-100 for 5 min at RT. Cells were then stained over night at 4° C. with the anti-acetylated α-Tubulin antibody, diluted 1:500 in Odyssey Blocking buffer, following manufacturer's protocol.
The next day, cells were washed with 1×PBS-0.1% Tween20, and stained with the secondary antibody (diluted 1:800 in Odyssey Blocking buffer, as recommended by the protocol) and with the CellTag 700Stain […]. To lower the background, Tween20 at a final concentration of 0.2% was added to the Odyssey Blocking buffer. 96-well plates were then read at Odyssey CLx Imaging system and images acquired. Data analysis was carried out by the use of Image Studio 2.1 software.
Paclitaxel was given to the DRG neurons following 7 days of culture at the concentration of 200 nM (Scuteri et al. 2006).
Effect of DF3966Y in C5α-induced neuronal toxicity In order to determine whether the observed effects may be triggered also by C5a, recombinant mouse C5a 1 μg/ml (111.11 nM) was given to the DRG neurons after 7 days of culture in presence or absence of DF3966Y 1 μM.
After 24 hr of incubation, acetylated α-Tubulin was quantified using in-cell western technique, as previously described.

Compound: C[C@H](c1ccc(Nc2nc(C(F)(F)F)cs2)cc1)c1nnn[nH]1 [DF3966Y, 1-N-[4-[(1R)-1-(1H-tetrazol-5-yl)ethyl]phenyl}-4-(trifluoromethyl)-11,3-thiazol-2-amine]
- % of synapse number (DRG neurons [1]; DF3966Y 1 μM + C5a (Table 5)): 111.33 ± 9.27%
- % of synapse number (DRG neurons [1]; DF3966Y 1 μM + PAC (Table 4)): 92.04 ± 21.01%
- effect on Paclitaxel-induced decrease in synapse number (DRG neurons [1]; DF3966Y 1 μM + paclitaxel): significantly counteracted Paclitaxel-induced effect
- % of synapse number (DRG neurons [1]; DF3966Y 1 μM alone (Table 4)): 99.89 ± 12.94%
- % of synapse number (DRG neurons [1]; DF3966Y 1 μM alone (Table 5)): 99.89 ± 12.94%
- alteration of electrical activity under Paclitaxel plus drug (DRG neurons [2]; 10 nM Paclitaxel + 1 μM DF3966Y, first immediate phase and longer time of exposure): no significant alteration of electrical activity
- inhibition of electrical activity under C5a plus drug, longer time of exposure (DRG neurons [2]; 1 μg/ml C5a + 1 μM DF3966Y, longer time of exposure (3-5 minutes)): about 35%
- alteration of electrical activity under C5a plus drug, short time points (DRG neurons [2]; 1 μg/ml C5a + 1 μM DF3966Y, short time points): no significant alteration of the electrical activity
- % dendritic tree area (DRG neurons [3]; DF3966Y 1 μM + C5a (Table 7)): 106.45 ± 9.43%
- % dendritic tree area (DRG neurons [3]; DF3966Y 1 μM + PAC (Table 6)): 101.21 ± 7.97%
- effect on paclitaxel-induced decrease of dendritic arborization area (DRG neurons [3]; DF3966Y 1 μM + paclitaxel): seems to counteract such a decrease
- % dendritic tree area (DRG neurons [3]; DF3966Y 1 μM alone (Table 6)): 103.07 ± 8.17%
- % dendritic tree area (DRG neurons [3]; DF3966Y 1 μM alone (Table 7)): 103.07 ± 8.17%
- % of cell number (DRG neurons [4]; DF3966Y 1 μM + C5a (Table 3)): 96.65 ± 10.77%
- % of cell number (DRG neurons [4]; DF3966Y 1 μM + PAC (Table 2)): 98.83 ± 12.49%
- % of cell number (DRG neurons [4]; DF3966Y 1 μM alone (Table 2)): 101.55 ± 10.59%
- % of cell number (DRG neurons [4]; DF3966Y 1 μM alone (Table 3)): 96.96 ± 6.45%
- effect on cell number (DRG neurons [4]; DF3966Y administered alone or with PAC): did not exert any significant effect on cell number
- levels of acetylated α-Tubulin under C5a plus drug (acetylated α-Tubulin; DF3966Y 1 μM + C5a 1 μg/ml, 24 hr): significantly reduced the challenge induced by C5a exposure
- Acetylated α-Tubulin (% of UT) (acetylated α-Tubulin; drug 0.1 μM under Paclitaxel 200 nM, 24 hr): 76.45 % of UT
- Acetylated α-Tubulin (% of UT) (acetylated α-Tubulin; drug 1 μM under Paclitaxel 200 nM, 24 hr): 65.16 % of UT
- Acetylated α-Tubulin (% of UT) (acetylated α-Tubulin; drug 10 μM under Paclitaxel 200 nM, 24 hr): 89.05 % of UT
- reversal of Paclitaxel-induced increase in acetylated α-Tubulin (acetylated α-Tubulin; drug 0.1, 1, 10 μM, Paclitaxel 200 nM): significantly reverted the Paclitaxel-induced challenge

Compound: CC(=O)O[C@H]1C(=O)[C@@]2(C)[C@H]([C@H](OC(=O)c3ccccc3)[C@]3(O)C[C@H](OC(=O)[C@H](O)[C@@H](NC(=O)c4ccccc4)c4ccccc4)C(C)=C1C3(C)C)[C@]1(OC(C)=O)CO[C@@H]1C[C@@H]2O [Paclitaxel, reference compound]
- % of synapse number (DRG neurons [1]; PAC alone (Table 4)): 88.02 ± 2.99%
- effect on synapse number (DRG neurons [1]; Paclitaxel alone): marked decrease in synapse number
- action potential firing rate vs CTRL, immediate (DRG neurons [2]; 10 nM Paclitaxel alone, immediate phase): +54.64%
- electrical activity vs CTRL, longer times of exposure (DRG neurons [2]; 10 nM Paclitaxel alone, longer times of exposure): −83.51%
- % dendritic tree area (DRG neurons [3]; PAC alone (Table 6)): 92.22 ± 3.47%
- area occupied by dendritic arborization (DRG neurons [3]; Paclitaxel alone): non-significant decrease
- effect on cell number (DRG neurons [4]; Paclitaxel alone): slight decrease in cell number
- % of cell number (DRG neurons [4]; Paclitaxel alone (Table 2)): 88.87 ± 6.04%
- change in acetylated α-Tubulin with respect to control (UT) cells (acetylated α-Tubulin; Paclitaxel 200 nM alone): marginal yet significant increase
- Acetylated α-Tubulin (% of UT) (acetylated α-Tubulin; Paclitaxel 200 nM alone, 24 hr): 111.41 % of UT
